We go through 17 molecules from patent US5087640A, “Novel cyanoguanidine derivatives” (Kanebo, Ltd., priority 1989, dated 1992).

In series [1] the test system is taenia caecum smooth muscle. As to the kind of experiment: Smooth muscle relaxation (isolated guinea pig taenia caecum, organ bath). Type of series: cell-based, guinia pigs. The conditions noted are these: Cavia porcellus; cumulative addition; papaverine (10^-4 M) relaxation taken as 100%; MOPS-PSS pH 7.4, 37°±1° C.; read-out: ED50 (dose achieving 50% relaxation). The procedure: Male guinia pigs weighing 300-600 g were stunned by blow on the head. Taeniae were isolated from the caecum and cut into length of about 1 cm to prepare a plurality of test specimens. These specimens were suspended in an organ bath filled with MOPS-PSS containing 129.7 mM of NaC1, 5.9 mM of KC1, 2.54 mM of CaC12, 1.19 mM of MgC12, 10.0 mM of 3-(N-morpholino)propanesulfonic acid (MOPS) and 11.1 mM of glucose, pH 7.4. The bathing solution was continuously bubbled with 100% O2 gas and maintained at 37°±1° C. Resting tension of each specimen was adjusted to 1 g and the spontaneous response was recorded isotonically. The specimens were allowed to stabilize before starting the test. Test compound was cumulatively added to the bathing solution. A relaxation induced with papaverine (10^-4 M) was taken as 100% relaxation. The relaxation effect of each test compound was evaluated in terms of a dose achieving 50% relaxation (ED50) determined by the linear regression analysis.

A short description of a further series: in vivo. Conditions: rat, po, fasted male rats, deaths for 7 days, Weil's method. The procedure:
Male rats weighing 70-210 g (3-5 rats/group) were fasted overnight and administered orally with the test compound suspended in 5% gum arabic solution. LD50 was calculated from the number of death for 7 days using the Weil's method.

Series [2] is described as follows: Hypotensive activity in anesthetized dogs (mean blood pressure). Type of series: in vivo, Mongrel dogs. The conditions noted are these: 30 μg/kg, i.v.; pentobarbital-anesthetized dogs. The procedure:
Mongrel dogs of both sexes, weighing 11-22 kg, were anesthetized with sodium pentobarbital (30 mg/kg, i.v.). Mean blood pressure was measured with a carrier amplifier (Nihon Koden, AP-621G) via a pressure transducer (Nihon Koden, TP-200T) connected to the cannulated left femoral artery. Each test compound was dissolved in 0.9% saline containing 50% (v/v) ethanol and injected into the femoral vein in volumes of 0.1 ml/kg. The hypotensive effects of test compounds were evaluated in terms of the maximum decrease in the mean blood pressure (Δ mmHg) at a dose of 30 μg/kg.

The subject of another series is K^+ channel. As to the kind of experiment: K^+ channel opening activity (^86 Rb^+ efflux from taenia caecum). It is filed as cell-based, guinia pigs. Conditions: n = 5; efflux just before addition taken as 100%; 37°±1° C. The procedure: In order to ascertain that the smooth muscle relaxation activity is proportional to the K^+ channel opening activity, the compound of Example B-2 was tested for the K^+ channel opening activity in comparison with pinacidil.
^86 Rb^+ efflux was selected as the indication of K^+ channel opening effect because the K^+ channels were considered to be selective also for Rb^+. In a similar manner to the test 1, specimens of taenia caecum were suspended in a test tube filled with MOPS-PSS. The bathing solution was continuously bubbled with 100% O2 gas and maintained at 37°±1° C. After an equilibration period for about 45 minutes, the specimens were loaded with ^86 Rb^+. The efflux from the specimens was measured using a scintillation counter at every 2 minutes interval. The efflux data were expressed in terms of the rate coefficient (the ^86 Rb^+ efflux just before the test compounds were added were taken as 100%). The effective dose (ED15) Producing 15% increase of the rate coefficient by the test compounds were calculated from the linear regression analysis.

In the case of `CC(C)(C)NC(=Nc1cc(Cl)cc(Cl)c1)NC#N` [Ex. B-1, N-t-butyl-N'-cyano-N"-(3,5-dichlorophenyl)-guanidine], in series [1], the EC50 was 0.087 µM. In addition, the LD50 (usually the dose expected to kill half of the subjects tested) at 168 h in “in vivo” is above 2000 mg/kg.

As to `CCC(C)(C)N=C(NC#N)Nc1cc(Cl)cc(Cl)c1` [Ex. B-2, N-cyano-N'-(3,5-dichlorophenyl)-N"-t-pentylguanidine], the EC50 in series [1] is 0.026 µM. Besides, the LD50 at 168 h in the series “in vivo” was above 2000 mg/kg. Also, in series [2], the “maximum decrease in the mean blood pressure, Δ mm Hg ± S.E.” value (“maximum decrease … Δ mm Hg ± S.E.” below) was -19.1 ± 4.1 mm Hg. Further, the “ED15 (dose producing 15% increase of the ^86 Rb^+ efflux rate coefficient)” value in the series with K^+ channel was found to be 0.27 µM.

For `CCC(C)(C)N=C(NC#N)Nc1cc(F)cc(Br)c1` [Ex. B-13, N-(3-bromo-5-fluorophenyl)-N'-cyano-N"-t-pentylguanidine], the EC50 in series [1] worked out at 0.025 µM. The LD50 at 168 h in the series “in vivo” is above 2000 mg/kg. The “maximum decrease … Δ mm Hg ± S.E.” value in series [2] is given as -33.4 ± 0.9 mm Hg.

For the molecule `CC(NC(=C[N+](=O)[O-])Nc1ccccc1)C(C)(C)C` (centres unmarked) [Compd. C, 2-nitro-1-anilino-1-(1,2,2-trimethylpropyl)aminoethene, reference compound], in series [1], the EC50 amounted to 2.7 µM.

In the case of `CC(C)C(C)(C)N=C(NC#N)Nc1cc(Cl)cc(Cl)c1` [Ex. B-4, N-cyano-N'-(3,5-dichlorophenyl)-N"-(1,1,2-trimethylpropyl)guanidine], the EC50 in series [1] was 0.058 µM.

Consider `CC(C)(C)NC(=Nc1cc(Br)cc(Br)c1)NC#N` [Ex. B-9, N-t-butyl-N'-cyano-N"-(3,5-dibromophenyl)guanidine], for which the EC50 in series [1] is 0.021 µM.

Turning to `CC(C)(C)NC(=Nc1cc(F)cc(F)c1)NC#N` [Ex. B-8, N-t-butyl-N'-cyano-N"-(3,5-difluorophenyl)guanidine], in series [1], the EC50 came out at 0.18 µM.

On to `CCC(C)(C)N=C(NC#N)Nc1cc(Br)cc(Br)c1` [Ex. B-10, N-cyano-N'-(3,5-dibromophenyl)-N"-t-pentylguanidine], for which, in series [1], the EC50 turned out to be 0.019 µM.

For the molecule `CC(N=C(NC#N)Nc1cc(Cl)cc(Cl)c1)C(C)(C)C` (centres unmarked) [Ex. B-6, N-cyano-N'-(3,5-dichlorophenyl)-N"-(1,2,2-trimethylpropyl)guanidine], the EC50 in series [1] turned out to be 0.18 µM.

Take `CC(N=C(NC#N)Nc1ccncc1)C(C)(C)C.O` (centres unmarked) [Pinacidil, N-cyano-N'-(4-pyridyl)-N"-(1,2,2-trimethylpropyl)guanidine monohydrate, reference compound]: the EC50 in series [1] was found to be 2 µM. In addition, the “maximum decrease … Δ mm Hg ± S.E.” value in series [2] is reported as -11.3 ± 1.1 mm Hg. The “ED15 (dose producing 15% increase of the ^86 Rb^+ efflux rate coefficient)” value in the series on K^+ channel is 24 µM.

For the molecule `CC(C)(C)NC(=Nc1c(Cl)cccc1Cl)NC#N` [Compd. B, N-t-butyl-N'-cyano-N"-(2,6-dichlorophenyl)guanidine, reference compound], the EC50 in series [1] was above 100 µM.

With `CCC(C)(C)NC(=Nc1ccccc1)NC#N` [Compd. A, N-cyano-N'-t-pentyl-N"-phenylguanidine, reference compound], the EC50 in series [1] was determined as 1.8 µM.

With `CCC(CC)(CC)N=C(NC#N)Nc1cc(Cl)cc(Cl)c1` [Ex. B-7, N-cyano-N'-(3,5-dichlorophenyl)-N"-(1,1-diethylpropyl)guanidine], the EC50 in series [1] was 0.18 µM.

As to `CCC(C)(C)N=C(NC#N)Nc1cc(F)cc(Cl)c1` [Ex. B-12, N-(3-chloro-5-fluorophenyl)-N'-cyano-N"-t-pentylguanidine], the EC50 in series [1] is 0.054 µM.

For the molecule `CCC(C)(CC)N=C(NC#N)Nc1cc(Cl)cc(Cl)c1` [Ex. B-5, N-cyano-N'-(3,5-dichlorophenyl)-N"-(1-ethyl-1-methylpropyl)guanidine], the EC50 in series [1] was determined as 0.081 µM. For the same molecule, the LD50 at 168 h in “in vivo” was above 2000 mg/kg. Moreover, the “maximum decrease … Δ mm Hg ± S.E.” value in series [2] was -26.1 ± 1.8 mm Hg.

For `CC(C)(C)NC(=NC#N)Nc1cc(F)cc(Cl)c1` [Ex. B-11, N-t-butyl-N'-(3-chloro-5-fluorophenyl)-N"-cyanoguanidine], in series [1], the EC50 worked out at 0.066 µM. Further, in series [2], the “maximum decrease … Δ mm Hg ± S.E.” value is on record as -19.2 ± 4.4 mm Hg.

As to `CCCC(C)(C)N=C(NC#N)Nc1cc(Cl)cc(Cl)c1` [Ex. B-3, N-cyano-N'-(3,5-dichlorophenyl)-N"-(1,1-dimethylbutyl)guanidine], the EC50 in series [1] came out at 0.035 µM. The “maximum decrease … Δ mm Hg ± S.E.” value in series [2] is -22.9 ± 3.2 mm Hg.
